Experimental data taken from patent US6063819A (priority 1998, dated 2000).
“Also recorded” adds a separate entry of the source. Where two headings read alike, the source gives them in different places.

Legend:
L-type calcium channels = experiment: Competitive inhibition of 3H-PN200-110 (or 3H-nitrendipine) binding to L-type calcium channels, rat brain neuronal membranes; conditions: Table 1
[1] = tested on: neurons of the CA1 region of the hippocampus; experiment: Hippocampal slice assay: protection of CA1 neurons against hypoxic injury (recovery of population spike); assay type: cell-based, male Sprague-Dawley rats; conditions: for EC50: Rattus norvegicus, Neuron, 1 h, 50% recovery 60 minutes after hypoxia; for relative potency in hippocampal slices: comparison CYP-PA2 with CYP-PA1, or CYP-PA2X with CYP-PA2
Experimental: (2) Additional in vitro tests involving perfused slices of hippocampal tissue from the brains of sacrificed rats, as described in Example 8. Various poly-guanidino candidates with good combinations of N-channel and P/Q-channel blocking potency (as shown in the ligand blocking assays of Example 7) were tested to determine their ability to protect hippocampal neurons against damage during and after a period of tissue hypoxia.
The ability of CYP-PA1 and CYP-PA2 to protect against hypoxic injury in neurons of the CA1 region of the hippocampus was examined, using an assay which involves intact tissue sections taken from the hippocampal regions of rat brains. To carry out these assays, male Sprague-Dawley rats were briefly anesthetized with halothane and decapitated. Brains were quickly removed and placed in cold artificial cerebral spinal fluid (ACSF) for one minute. ACSF was composed of (in mM): NaCl, 126; KCl, 4; KH2 PO4, 1.4; MgSO4, 1.3; CaCl2, 2.4; NaHCO3, 26; and glucose, 4; pH 7.4, saturated with 95% O2, 5% CO2. Hippocampi were dissected free from the brains, and cut into 475 μm transverse sections (also called slices). The slices were placed in paired recording wells perfused with ACSF maintained at 37° C. Several hippocampal slices were placed in each recording well.
One hour after placement of the tissue slices into recording wells, the orthodromic CA1 population spike (PS) was measured. This indicator of synaptic and neuronal cell body function was elicited by stimulation with a twisted bipolar electrode placed over the CA3 Schaffer collaterals. Responses were recorded in the pyramidal layer of CA1, using a tungsten electrode. Strengths of currents and recording electrode depth were adjusted to obtain maximal amplitude of the CA1 PS. Only slices having an orthodromic CA1 PS of 3 mV or greater on initial assessment were used for further testing.
One tissue slice in each well was given orthodromic stimulation every 30 seconds throughout the experiment, in order to monitor evoked response activity. These slices were designated as "stimulated slices." In general, periodic stimulation provides an even more rigorous test of neuroprotective ability, since the repeated stimulation forces neurons to use up their metabolic resources after each impulse, to reestablish a polarized and ready-to-fire status.
For the remaining slices in each well, orthodromic and antidromic PS amplitude was assessed at the beginning and end of each experiment, without any periodic stimulation. These slices were designated as "unstimulated slices."
All slices were subjected to hypoxia by changing the perfusion medium to oxygen-devoid ACSF saturated with 95% N2, 5% CO2. Slices in one recording well additionally received exposure to various concentrations of the poly-guanidino compounds discussed above, added directly into the perfusion ACSF. Hypoxic duration was continued until 5 minutes after the disappearance of the hypoxic injury potential (Fairchild et al 1988) in the unmedicated stimulated slice. Final recovery was assessed 60 minutes after returning to oxygenated conditions. Exposure to the poly-guanidino compounds began 30 minutes prior to hypoxia and continued through the first 15 minutes of recovery.

[2] = LD50 toxicity test, intraperitoneal injection in mice; assay type: in vivo; conditions: for LD50: mouse, in vivo, ip
Experimental: At roughly the same time as the hippocampal tissue tests were being carried out, various polyamine compounds were also tested in toxicity tests, using conventional LD50 tests in mice. […] According, subsequent in vivo tests focused mainly on the CYP-PA1 compound.
These tests used intraperitoneal (IP) injection in mice.

[3] = tested on: neurons in CA1 and CA2 fields of the hippocampus and in the subiculum; experiment: In vivo protection against global brain ischemia (bilateral carotid occlusion, gerbils); parameters: species or system Adult male Mongolian gerbils; conditions: for median number of visibly damaged neurons, CA2: saline controls 23.9; for median number of visibly damaged neurons, Subiculum: saline controls 214.0; for median number of visibly damaged neurons, CA1: saline controls 235.5; for protection against ischemia: gerbils, IP
Experimental: Adult male Mongolian gerbils, 50 to 60 grams body weight, were put under methoxyflurane anesthesia and surgically subjected to reversible bilateral carotid occlusion for 5 minutes, using published methods (Wasterlain et al 1996). Occlusion was produced by exposure of both common carotid arteries via a ventral midline incision, isolation of the carotids with 4-0 silk suture, and application of microaneurysm clips. After five minutes of occlusion, the clips were removed, and the incision was closed. Body temperature was maintained at 37° C. throughout the surgical and recovery periods.
Blockage of both common carotids generates global brain ischemia in most gerbils. However, some gerbils contain a vascular structure at the base of the brain which resembles the Circle of Willis in humans, which allows some commingling of oxygenated blood from the carotid and vertebral arteries. Accordingly, the surgical method of generating global ischemia in gerbils by clamping flow through the carotids is not completely reliable in all test animals. To overcome this problem, a sufficient number of gerbils must be treated and tested to ensure statistically significant and reliable results.
A solution containing the test compound (or saline, as a control) was administered at the dosage and time described below, via intraperitoneal (IP) injection. The gerbils were sacrificed 72 hours later, and the brains were perfusion-fixed with paraformaldehyde. Serial sections of the brain were cut and stained with hematoxylin and eosin, and quantitative cell counts of live and dead neurons in the CA1 and CA2 fields of the hippocampus and in the subiculum were made, using both light and fluorescence microscopy. Evaluation of neuronal damage in other brain regions was also made on a semi-quantitative scale, and statistical analysis was performed on all damage scores (non-paired Student's T test).
The in vivo tests involving the CYP-PA2 compound used two different dosage regimens. One set of test animals received two injections: 30 mg/kg, at 30 minutes prior to the start of ischemia, and another 30 mg/kg at 90 minutes after the termination of ischemia. […] This neuroprotective activity was statistically significant at higher than the 95% level. A second set of test animals received a smaller dosage (10 mg/kg) of CYP-PA2, in a single injection 30 minutes before the onset of ischemia.
Tests on the CYP-PA1 compound used three different dosage levels: 7.5 mg/kg, injected 30 minutes before occlusion began; 20 mg/kg, injected 30 minutes before occlusion began; and 20 mg/kg, injected 30 minutes after occlusion was terminated.
The values reported in Table 3 are median numbers of visibly damaged neurons, counted in a single entire tissue slice.

L-type channels = conditions: background; cited from earlier work
T channels = conditions: background; cited from earlier work
[4] = stimulated slices, antidromic, read-out: EC50, antidromic PS amplitude, stimulated slices
[5] = stimulated slices, orthodromic, read-out: EC50, orthodromic PS amplitude, stimulated slices
[6] = unstimulated slices, antidromic, read-out: EC50, antidromic PS amplitude, unstimulated slices
[7] = unstimulated slices, orthodromic, read-out: EC50, orthodromic PS amplitude, unstimulated slices
[8] = 20 mg/kg IP post (30 minutes after occlusion terminated)

| Compound | IC50 (L-type calcium channels) [µM] | neuroprotective activity in hippocampal slices [1] | EC50 [1, 4] [µM] | EC50 [1, 5] [µM] | EC50 [1, 6] [µM] | EC50 [1, 7] [µM] | protection against ischemia [3] | relative potency in hippocampal slices [1] | binding to L-type channels (L-type channels) | binding to T channels (T channels) | also measured |
| --- | --- | --- | --- | --- | --- | --- | --- | --- | --- | --- | --- |
| N=C(N)NCCC[C@H](N)C(=O)NCCN(CCNC(=O)[C@@H](N)CCCNC(=N)N)CCNC(=O)[C@@H](N)CCCNC(=N)N [CYP-PA1, tris(arginyl-2-aminoethyl)amine] | > 300 | substantial neuroprotective activity | 95 | 97 | 87 | 90 | quite substantial and beneficial; also recorded: substantial and beneficial protection against actual ischemia |  |  |  | toxicity: lethal or other adverse effects ([2]; IP, even at highest dosage tested (200 mg/kg)): no detectable lethal or other adverse effects; also recorded: completely free of any toxicity concerns; median number of visibly damaged neurons, CA2 ([3]; 7.5 mg/kg IP pre-occlusion): 15.2; median number of visibly damaged neurons, Subiculum ([3]; 7.5 mg/kg IP pre-occlusion): 91.5; median number of visibly damaged neurons, CA1 ([3]; 7.5 mg/kg IP pre-occlusion): 37.5; median number of visibly damaged neurons, CA2 [3, 8]: 14.7; median number of visibly damaged neurons, Subiculum [3, 8]: 31.0; median number of visibly damaged neurons, CA1 [3, 8]: 14.5; median number of visibly damaged neurons, CA2 ([3]; 20 mg/kg IP pre-occlusion): 10.4; median number of visibly damaged neurons, Subiculum ([3]; 20 mg/kg IP pre-occlusion): 38.5; median number of visibly damaged neurons, CA1 ([3]; 20 mg/kg IP pre-occlusion): 18.0; significance of reduction in neuronal damage, CA2 ([3]; CA2 region): did not rise to the level of significance at the 95% confidence level; number of injured neurons vs saline-treated controls ([3]; all treatment dosages): substantially reduced; significance level of reduction in neuronal damage, subiculum and CA1 ([3]; subiculum and CA1 regions): ≥ 98% |
| N=C(N)NCCC[C@H](NC(=O)[C@@H](N)CCCNC(=N)N)C(=O)NCCN(CCNC(=O)[C@H](CCCNC(=N)N)NC(=O)[C@@H](N)CCCNC(=N)N)CCNC(=O)[C@H](CCCNC(=N)N)NC(=O)[C@@H](N)CCCNC(=N)N [CYP-PA2, Tris(arginyl-arginyl-2-aminoethyl)amine] | > 100 | substantial neuroprotective activity; also recorded: potent neuroprotective benefits | 42 | 43 | 37 | 38 | good neuroprotective activity; also recorded: substantial and beneficial protection against actual ischemia | somewhat more potent than the tri-arginine compound, CYP-PA1 |  |  | LD50 ([2]; read-out: LD50): ~125 mg/kg; LD50 ([2]; read-out: LD50 level): 125 mg/kg; statistical significance of reduction of neuronal damage ([3]; 10 mg/kg IP single injection): did not reach the 95% confidence level; neurons damaged ([3]; 10 mg/kg IP single injection 30 minutes before ischemia, untreated control 74.6%): 56.1%; neurons showing visible damage ([3]; 2 x 30 mg/kg IP, 30 minutes before and 90 minutes after ischemia, untreated control 74.6%): 40.9%; statistical significance of neuroprotective activity ([3]; 2 x 30 mg/kg IP, confidence level): > 95% |
| N=C(N)NCCC[C@H](NC(=O)[C@@H](N)CCCNC(=N)N)C(=O)NCCN(CCN)CCNC(=O)[C@H](CCCNC(=N)N)NC(=O)[C@@H](N)CCCNC(=N)N [CYP-PA2X] |  |  |  |  |  |  |  | not as potent as the fully di-arginylated compound CYP-PA2 |  |  |  |
| Fc1ccc(C(c2ccc(F)cc2)N2CCN(C/C=C/c3ccccc3)CC2)cc1 [flunarizine] |  |  |  |  |  |  |  |  | bind to L-type channels | not to T or N channels |  |
| COC(=O)C1=C(C)NC(C)=C(C(=O)OCCN(C)Cc2ccccc2)C1c1cccc([N+](=O)[O-])c1 (centres unmarked) [nicardipine] |  |  |  |  |  |  |  |  | bind to L-type channels | not to T or N channels |  |
| COC(=O)C1=C(C)NC(C)=C(C(=O)OC)C1c1ccccc1[N+](=O)[O-] [nifedipine] |  |  |  |  |  |  |  |  | bind to L-type channels | not to T or N channels |  |
